# US8709482B2, “Stabilised prostaglandin composition” (Ferring B.V., priority 2005, dated 2014)
# Tests used:
# [1] = Stability study of misoprostol oil at 25° C. (HPLC content, physical form); type: physicochemical
# Method: Misoprostol stability was tested over a period of 6 months. The misoprostol tested was the commercially available misoprostol in the form of an oil. Misoprostol was stored at a temperature of 25° C., and misoprostol content measured using HPLC at 0, 2, 4, 8 weeks and 3 and 6 months.
# [2] = Comparative stability at 25° C. of dinoprostone bulk drug crystal and dinoprostone in polyurethane hydrogel; type: physicochemical
# Description: Measurements are taken at 0, 1, 2, 3, and 6 months. The following results are for comparative purposes only and are not intended to form part of the present invention.
Misoprostol content [1]; 0 [% w/w],Physical form [1]; 0,Misoprostol content ([1]; 2 w) [% w/w],Physical form ([1]; 2 w),Misoprostol content ([1]; 3 m) [% w/w],Physical form ([1]; 3 m),Misoprostol content ([1]; 4 w) [% w/w],Physical form ([1]; 4 w),Misoprostol content ([1]; 6 m) [% w/w],Physical form ([1]; 6 m),Misoprostol content ([1]; 8 w) [% w/w],Physical form ([1]; 8 w),Stability (FIG. 1) ([1]; in the absence of polyurethane hydrogel),% potency ([2]; 0 months) [% potency],% potency ([2]; 1 month) [% potency],% potency ([2]; 3 months) [% potency],% potency ([2]; 6 months) [% potency],SMILES
101.59,Colourless,99.61,Colourless,93.63,Straw,98.59,Colourless,57.07,Yellow,96.87,Clear,degrades with time,,,,,"CCCCC(C)(O)C/C=C/[C@H]1[C@H](O)CC(=O)[C@@H]1CCCCCCC(=O)OC (mixture of isomers) [Misoprostol, (11α,13E)-(±)-11,16-Dihydroxy-16-methyl-9-oxoprost-13-en-1-oic acid methyl ester]"
,,,,,,,,,,,,,100,96,89,75,CCCCC[C@H](O)/C=C/[C@H]1[C@H](O)CC(=O)[C@@H]1C/C=C\CCCC(=O)O [Dinoprostone]
